According to PubChem BioAssay (NCI):
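At the GI50, growth is halved. TGI is the concentration that stops growth completely.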

Tests used:
Test in all cases: NCI-60 cell line screen, 384-well format
786-0 renal = tested on: 786-0 renal
A498 renal = tested on: A498 renal
A549 NSCLC = tested on: A549 NSCLC
ACHN renal = tested on: ACHN renal
BT-549 breast = tested on: BT-549 breast
CAKI-1 renal = tested on: CAKI-1 renal
CCRF-CEM leukemia = tested on: CCRF-CEM leukemia
COLO 205 colon = tested on: COLO 205 colon
DU-145 prostate = tested on: DU-145 prostate
EKVX NSCLC = tested on: EKVX NSCLC
HCC-2998 colon = tested on: HCC-2998 colon
HCT-15 colon = tested on: HCT-15 colon
HL-60(TB) leukemia = tested on: HL-60(TB) leukemia
HOP-62 NSCLC = tested on: HOP-62 NSCLC
HOP-92 NSCLC = tested on: HOP-92 NSCLC
HS 578T breast = tested on: HS 578T breast
HT29 colon = tested on: HT29 colon
IGROV1 ovarian = tested on: IGROV1 ovarian
KM12 colon = tested on: KM12 colon
M14 melanoma = tested on: M14 melanoma
MALME-3M melanoma = tested on: MALME-3M melanoma
MCF7 breast = tested on: MCF7 breast
MDA-MB-231 breast = tested on: MDA-MB-231 breast
MDA-MB-435 melanoma = tested on: MDA-MB-435 melanoma
MDA-MB-468 breast = tested on: MDA-MB-468 breast
MOLT-4 leukemia = tested on: MOLT-4 leukemia
NCI-H226 lung = tested on: NCI-H226 lung
NCI-H23 lung = tested on: NCI-H23 lung
NCI-H322M lung = tested on: NCI-H322M lung
NCI-H460 NSCLC = tested on: NCI-H460 NSCLC
NCI-H522 lung = tested on: NCI-H522 lung
NCI/ADR-RES ovarian = tested on: NCI/ADR-RES ovarian
OVCAR-3 ovarian = tested on: OVCAR-3 ovarian
OVCAR-4 ovarian = tested on: OVCAR-4 ovarian
OVCAR-5 ovarian = tested on: OVCAR-5 ovarian
OVCAR-8 ovarian = tested on: OVCAR-8 ovarian
PC-3 prostate = tested on: PC-3 prostate
RPMI-8226 leukemia = tested on: RPMI-8226 leukemia
RXF 393 renal = tested on: RXF 393 renal
SF-268 CNS = tested on: SF-268 CNS
SF-295 CNS = tested on: SF-295 CNS
SF-539 CNS = tested on: SF-539 CNS
SK-MEL-2 melanoma = tested on: SK-MEL-2 melanoma
SK-MEL-28 melanoma = tested on: SK-MEL-28 melanoma
SK-MEL-5 melanoma = tested on: SK-MEL-5 melanoma
SK-OV-3 ovarian = tested on: SK-OV-3 ovarian
SN12C renal = tested on: SN12C renal
SNB-19 CNS = tested on: SNB-19 CNS
SNB-75 CNS = tested on: SNB-75 CNS
SR leukemia = tested on: SR leukemia
SW-620 colon = tested on: SW-620 colon
T-47D breast = tested on: T-47D breast
TK-10 renal = tested on: TK-10 renal
U251 glioblastoma = tested on: U251 glioblastoma
UACC-257 melanoma = tested on: UACC-257 melanoma
UACC-62 melanoma = tested on: UACC-62 melanoma

Work on `COCC1(CO)C(=O)C2CCN1CC2` (configuration not stated) yielded a GI50 (786-0 renal) of 15.5 µM, a TGI (786-0 renal) of 28.9 µM and a GI50 (A498 renal) of 16.7 µM. For the same compound, the TGI (A498 renal) was 30.5 µM, the GI50 (A549 NSCLC) was 18.2 µM and the TGI (A549 NSCLC) was 32.4 µM. The GI50 (ACHN renal) was 20.3 µM, the TGI (ACHN renal) was 34.6 µM and the GI50 (BT-549 breast) was 11.5 µM. For the same compound, the TGI (BT-549 breast) was 23.7 µM, the GI50 (CAKI-1 renal) was 17.1 µM and the TGI (CAKI-1 renal) was 30.9 µM. For the same compound, the GI50 (CCRF-CEM leukemia) was 1.76 µM, the TGI (CCRF-CEM leukemia) was 3.33 µM and the GI50 (COLO 205 colon) was 18.1 µM. It also gave a TGI (COLO 205 colon) of 32.1 µM, a GI50 (DU-145 prostate) of 17.9 µM and a TGI (DU-145 prostate) of 32 µM. The GI50 (EKVX NSCLC) was 16.9 µM, the TGI (EKVX NSCLC) was 30.6 µM and the GI50 (HCC-2998 colon) was 17.2 µM. For the same compound, the TGI (HCC-2998 colon) was 31 µM, the GI50 (HCT-15 colon) was 4.34 µM and the TGI (HCT-15 colon) was 13.9 µM. It also gave a GI50 (HL-60(TB) leukemia) of 13 µM, a TGI (HL-60(TB) leukemia) of 25.9 µM and a GI50 (HOP-62 NSCLC) of 1.86 µM. For the same compound, the TGI (HOP-62 NSCLC) was 3.49 µM, the GI50 (HOP-92 NSCLC) was 10.9 µM and the TGI (HOP-92 NSCLC) was 22.9 µM. For the same compound, the GI50 (HS 578T breast) was 13.1 µM, the TGI (HS 578T breast) was 25.9 µM and the GI50 (HT29 colon) was 19 µM. For the same compound, the TGI (HT29 colon) was 33.2 µM, the GI50 (IGROV1 ovarian) was 17.2 µM and the TGI (IGROV1 ovarian) was 31.1 µM. The GI50 (KM12 colon) was 17.9 µM, the TGI (KM12 colon) was 32 µM and the GI50 (M14 melanoma) was 17.8 µM. For the same compound, the TGI (M14 melanoma) was 31.8 µM, the GI50 (MALME-3M melanoma) was 17.5 µM and the TGI (MALME-3M melanoma) was 31.3 µM. The GI50 (MCF7 breast) was 3.68 µM, the TGI (MCF7 breast) was 12.4 µM and the GI50 (MDA-MB-231 breast) was 17.7 µM. For the same compound, the TGI (MDA-MB-231 breast) was 31.7 µM, the GI50 (MDA-MB-435 melanoma) was 16.9 µM and the TGI (MDA-MB-435 melanoma) was 30.7 µM. For the same compound, the GI50 (MDA-MB-468 breast) was 3.28 µM, the TGI (MDA-MB-468 breast) was 7.2 µM and the GI50 (MOLT-4 leukemia) was 2.27 µM. For the same compound, the TGI (MOLT-4 leukemia) was 6.55 µM, the GI50 (NCI-H226 lung) was 21.9 µM and the TGI (NCI-H226 lung) was 36.4 µM. It also gave a GI50 (NCI-H23 lung) of 11.8 µM, a TGI (NCI-H23 lung) of 24.2 µM and a GI50 (NCI-H322M lung) of 19.7 µM. The TGI (NCI-H322M lung) was 35.2 µM, the GI50 (NCI-H460 NSCLC) was 17.4 µM and the TGI (NCI-H460 NSCLC) was 31.6 µM. For the same compound, the GI50 (NCI-H522 lung) was 1.83 µM, the TGI (NCI-H522 lung) was 3.24 µM and the GI50 (NCI/ADR-RES ovarian) was 16.2 µM. It also gave a TGI (NCI/ADR-RES ovarian) of 29.9 µM, a GI50 (OVCAR-3 ovarian) of 14.6 µM and a TGI (OVCAR-3 ovarian) of 27.9 µM. The GI50 (OVCAR-4 ovarian) was 2.6 µM, the TGI (OVCAR-4 ovarian) was 6.3 µM and the GI50 (OVCAR-5 ovarian) was 16.5 µM. It also gave a TGI (OVCAR-5 ovarian) of 30.2 µM, a GI50 (OVCAR-8 ovarian) of 19.8 µM and a TGI (OVCAR-8 ovarian) of 34.1 µM. The GI50 (PC-3 prostate) was 19.1 µM, the TGI (PC-3 prostate) was 33.3 µM and the GI50 (RPMI-8226 leukemia) was 10.5 µM. For the same compound, the TGI (RPMI-8226 leukemia) was 22.3 µM, the GI50 (RXF 393 renal) was 2 µM and the TGI (RXF 393 renal) was 3.43 µM. The GI50 (SF-268 CNS) was 20 µM, the TGI (SF-268 CNS) was 34.2 µM and the GI50 (SF-295 CNS) was 17.5 µM. For the same compound, the TGI (SF-295 CNS) was 31.6 µM, the GI50 (SF-539 CNS) was 17.5 µM and the TGI (SF-539 CNS) was 31.3 µM. The GI50 (SK-MEL-2 melanoma) was 2.62 µM, the TGI (SK-MEL-2 melanoma) was 5.41 µM and the GI50 (SK-MEL-28 melanoma) was 20.6 µM. It also gave a TGI (SK-MEL-28 melanoma) of 35 µM, a GI50 (SK-MEL-5 melanoma) of 15.5 µM and a TGI (SK-MEL-5 melanoma) of 29 µM. It also gave a GI50 (SK-OV-3 ovarian) of 19.3 µM, a TGI (SK-OV-3 ovarian) of 33.4 µM and a GI50 (SN12C renal) of 15.3 µM. For the same compound, the TGI (SN12C renal) was 28.8 µM, the GI50 (SNB-19 CNS) was 17.5 µM and the TGI (SNB-19 CNS) was 31.5 µM. The GI50 (SNB-75 CNS) was 1.79 µM, the TGI (SNB-75 CNS) was 3.73 µM and the GI50 (SR leukemia) was 14.6 µM. It also gave a TGI (SR leukemia) of 27.8 µM, a GI50 (SW-620 colon) of 14.2 µM and a TGI (SW-620 colon) of 27.4 µM. For the same compound, the GI50 (T-47D breast) was 1.58 µM, the TGI (T-47D breast) was 2.94 µM and the GI50 (TK-10 renal) was 17 µM. The TGI (TK-10 renal) was 30.7 µM, the GI50 (U251 glioblastoma) was 18.7 µM and the TGI (U251 glioblastoma) was 32.8 µM. For the same compound, the GI50 (UACC-257 melanoma) was 13.9 µM, the TGI (UACC-257 melanoma) was 27 µM and the GI50 (UACC-62 melanoma) was 18.2 µM. For the same compound, the TGI (UACC-62 melanoma) was 32.2 µM.
